SMILES strings stand for the structures.

In assay [1] the test system is Respiratory syncytial virus. The experiment in a line: In vitro inhibitory activity against respiratory syncytial virus (RSV). The format is functional, organism-based. The conditions noted are these: human respiratory syncytial virus.
Assay [2] in a line: Inhibitory concentration required against HSV-1 (Herpes simplex virus) by using HSV-1 in ELISA assay. The format is functional.
In a further assay the test system is Human betaherpesvirus 5. Description: Inhibitory concentration required against HCMV (Human cytomegalovirus) by using HCMV AD169 and assay is via an indicator gene in the virus. The format is functional, organism-based.
The next assay deals with Human orthopneumovirus. The experiment in a line: In vitro inhibitory concentration against HRSV (Human respiratory syncytial virus) by using RSV A2 and the assay is by ELISA. The format is functional, organism-based.

`NC(=O)CCN(CCC(N)=O)S(=O)(=O)c1cccc(Nc2nc(Nc3cccc(S(=O)(=O)N(CCC(N)=O)CCC(N)=O)c3)nc(Nc3ccc(/C=C/c4ccc(Nc5nc(Nc6cccc(S(=O)(=O)N(CCC(N)=O)CCC(N)=O)c6)nc(Nc6cccc(S(=O)(=O)N(CCC(N)=O)CCC(N)=O)c6)n5)cc4S(=O)(=O)O)c(S(=O)(=O)O)c3)n2)c1`: the concentration for half-maximal inhibition (IC50) in assay [1] came out at 150 nM.

In the case of `NC(=O)CCN(CCC(N)=O)S(=O)(=O)c1cccc(Nc2nc(Nc3cccc(S(=O)(=O)N(CCC(N)=O)CCC(N)=O)c3)nc(Nc3ccc(-c4ccc(Nc5nc(Nc6cccc(S(=O)(=O)N(CCC(N)=O)CCC(N)=O)c6)nc(Nc6cccc(S(=O)(=O)N(CCC(N)=O)CCC(N)=O)c6)n5)cc4S(=O)(=O)O)c(S(=O)(=O)O)c3)n2)c1`, the half-inhibitory concentration (IC50) in assay [2] amounted to 19500 nM; in the assay with Human betaherpesvirus 5 it was 13900 nM; in assay [1], 50 nM; with Human orthopneumovirus, 80 nM.

Regarding `NC(=O)CN(CC(N)=O)S(=O)(=O)c1cccc(Nc2nc(Nc3cccc(S(=O)(=O)N(CC(N)=O)CC(N)=O)c3)nc(Nc3ccc(-c4ccc(Nc5nc(Nc6cccc(S(=O)(=O)N(CC(N)=O)CC(N)=O)c6)nc(Nc6cccc(S(=O)(=O)N(CC(N)=O)CC(N)=O)c6)n5)cc4S(=O)(=O)O)c(S(=O)(=O)O)c3)n2)c1` [RF-1461], the IC50 in assay [2] turned out to be 7700 nM; with Human betaherpesvirus 5, 2550 nM; in the assay with Human orthopneumovirus, 50 nM.

For the compound `NC(=O)CNS(=O)(=O)c1cccc(Nc2nc(Nc3cccc(S(=O)(=O)NCC(N)=O)c3)nc(Nc3ccc(-c4ccc(Nc5nc(Nc6cccc(S(=O)(=O)NCC(N)=O)c6)nc(Nc6cccc(S(=O)(=O)NCC(N)=O)c6)n5)cc4S(=O)(=O)O)c(S(=O)(=O)O)c3)n2)c1`, the IC50 was over 25000 nM in assay [2], 1370 nM with Human betaherpesvirus 5 and 270 nM in the assay on Human orthopneumovirus.

As for `NC(=O)CCCN(CCCC(N)=O)S(=O)(=O)c1cccc(Nc2nc(Nc3cccc(S(=O)(=O)N(CCCC(N)=O)CCCC(N)=O)c3)nc(Nc3ccc(-c4ccc(Nc5nc(Nc6cccc(S(=O)(=O)N(CCCC(N)=O)CCCC(N)=O)c6)nc(Nc6cccc(S(=O)(=O)N(CCCC(N)=O)CCCC(N)=O)c6)n5)cc4S(=O)(=O)O)c(S(=O)(=O)O)c3)n2)c1`, the IC50 in assay [2] amounted to 8500 nM; in the assay on Human betaherpesvirus 5, 5800 nM; in the assay on Human orthopneumovirus it was 100 nM.

`NC(=O)CCNS(=O)(=O)c1cccc(Nc2nc(Nc3cccc(S(=O)(=O)NCCC(N)=O)c3)nc(Nc3ccc(-c4ccc(Nc5nc(Nc6cccc(S(=O)(=O)NCCC(N)=O)c6)nc(Nc6cccc(S(=O)(=O)NCCC(N)=O)c6)n5)cc4S(=O)(=O)O)c(S(=O)(=O)O)c3)n2)c1`: the figures for the half-maximal inhibitory concentration (IC50) (in assay [2]; in the assay on Human betaherpesvirus 5; in the assay with Human orthopneumovirus) were 23200 nM, 2640 nM and 660 nM, respectively.

These data come from ChEMBL document CHEMBL1134023, “The discovery of RFI-641 as a potent and selective inhibitor of the respiratory syncytial virus” (Bioorg Med Chem Lett, 2001).
